The test system of one test is U-937. The test is described as follows: Cytotoxicity against human U937 cells. The test is classed as ADME, cell-based.
The test system of a further test is PC-3. Put plainly: Cytotoxicity against human PC3 cells. Type of test: cell-based.
For a further test, the system named is MDA-MB-231. The test is described as follows: Cytotoxicity against human MDA-MB-231 cells. The test is classed as cell-based.
The subject of a further test is MCF7. The test is described as follows: Cytotoxicity against human MCF7 cells. The test is classed as cell-based.
In the next test the test system is Jurkat. Put plainly: Cytotoxicity against human Jurkat cells. The test is classed as cell-based.
The test system of the next test is HCT-116. Put plainly: Cytotoxicity against human HCT116 cells. The test is classed as cell-based.
The target of test [1] is Cyclin-dependent kinase 2 (Homo sapiens) (UniProt P24941). The test is described as follows: Inhibition of CDK2 at 100 uM.
The target in the next test is T1, Caspase-3 (Homo sapiens) (UniProt P42574).
T1 sequence (whole entry): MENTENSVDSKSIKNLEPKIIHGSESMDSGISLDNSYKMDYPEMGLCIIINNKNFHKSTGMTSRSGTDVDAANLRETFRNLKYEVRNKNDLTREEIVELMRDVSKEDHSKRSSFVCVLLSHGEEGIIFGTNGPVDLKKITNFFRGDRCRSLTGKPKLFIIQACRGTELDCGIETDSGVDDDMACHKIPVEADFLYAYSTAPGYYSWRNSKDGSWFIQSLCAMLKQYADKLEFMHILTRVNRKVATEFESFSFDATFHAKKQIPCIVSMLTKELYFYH
The test is described as follows: Activation of caspase 3 in Jurkat cells after 5 hr by apoptosis assay. Type of test: cell-based.

Another test addresses T2, Caspase-7 (Homo sapiens) (UniProt P55210).
T2 sequence (whole entry): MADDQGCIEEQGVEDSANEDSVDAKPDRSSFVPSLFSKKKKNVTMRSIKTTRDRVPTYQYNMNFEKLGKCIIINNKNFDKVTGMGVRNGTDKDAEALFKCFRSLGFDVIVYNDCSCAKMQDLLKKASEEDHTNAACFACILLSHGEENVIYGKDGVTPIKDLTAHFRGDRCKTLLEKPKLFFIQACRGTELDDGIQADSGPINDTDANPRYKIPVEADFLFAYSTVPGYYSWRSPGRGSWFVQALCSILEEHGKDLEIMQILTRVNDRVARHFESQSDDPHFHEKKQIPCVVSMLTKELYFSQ
Put plainly: Activation of caspase 7 in Jurkat cells after 5 hrs by apoptosis assay. The test is classed as cell-based.

Each structure is given as a SMILES string. Active and inactive are the calls of the source. The calls are words filed in the database; no cut-off is given here.

On to `Oc1[nH]c2ccccc2c1/N=N/c1ccccc1`, for which the IC50 (usually the midpoint of a concentration-inhibition curve) in the test on U-937 was > 211 µM.

For the compound `O=C1Nc2c(I)cc(I)cc2C1=O`, the IC50 with PC-3 turned out to be 71.9 µM; in the test on MDA-MB-231, 41.8 µM; with MCF7, 18.4 µM; in the test on U-937 it was 7.85 µM; with Jurkat, 20.9 µM; with HCT-116, 24 µM.

As to `O=C1Nc2ccc(F)cc2C1=O` [5-FLUOROISATIN], inhibition in the test with U-937 was half-maximal at 98.4 µM (IC50). That is a double-digit micromolar value.

For the compound `O=C1Nc2c(Br)cc(Br)cc2C1=O`, the inhibition (in general, the percentage by which the read-out fell short of the control) in [1] amounted to 44%.

In the test on U-937, `COc1ccc2c(c1)C(=O)C(=O)N2` [5-METHOXYISATIN] displayed an IC50 of 420 µM.

`O=C1Nc2ccc([N+](=O)[O-])cc2C1=O` [5-NITROISATIN] registered an IC50 in the test with U-937 of 132 µM.

In turn, `O=C1Nc2c(Br)cccc2C1=O` registered a half-inhibitory concentration (IC50) in the test on U-937 of 83 µM.

In the case of `O=C1Nc2cc(Br)c(Br)cc2C1=O`, the half-inhibitory concentration (IC50) in the test with PC-3 stood at 41 µM; in the test with MDA-MB-231, 41.7 µM; in the test on MCF7, 20.2 µM; in the test with U-937 it was 11.6 µM; in the test with Jurkat, 20.2 µM; with HCT-116, 37.3 µM.

In turn, `O=C1Nc2cc(Br)c([N+](=O)[O-])cc2C1=O` had an IC50 with U-937 of 17.1 µM.

Take `CN1C(=O)C(=O)c2ccccc21`: in the test with U-937, the IC50 was 238 µM.

`O=C1Nc2ccc(I)cc2C1=O` [5-IODOISATIN] had an IC50 in the test on U-937 of 53.4 µM.

On to `O=C1Nc2cccc(Br)c2C1=O`, for which, in the test with U-937, it took 214 µM to reach half-maximal inhibition (IC50).

Turning to `O=C1Nc2c(Br)cc(Br)cc2/C1=N/c1ccccc1`, it took 13.7 µM to reach half-maximal inhibition in the test on U-937 (IC50).

Consider `O=C1Nc2c(Br)cc([N+](=O)[O-])cc2C1=O`, for which, in the test on U-937, the IC50 is > 369 µM.

With `O=C1Nc2ccccc2C1=O` [ISATIN], the IC50 in the test with U-937 is 565 µM.

Regarding `O=C1Nc2ccc(Br)cc2C1=O`, the IC50 in the test with U-937 was determined as 64.5 µM.

Consider `O=C1Nc2c(cc(Br)c(Br)c2Br)C1=O`, for which the IC50 in the test with PC-3 came to 25.9 µM; in the test on MDA-MB-231, 21.8 µM; in the test with MCF7 it was 13.3 µM; in the test with U-937 it was 6.76 µM; in the test with Jurkat, 5.8 µM; in the test on HCT-116, 15.9 µM. Moreover, the result at Caspase-3 (Homo sapiens) and at Caspase-7 (Homo sapiens) was Active.

In turn, `O=C1Nc2c(cc(Br)cc2[N+](=O)[O-])C1=O` showed a half-inhibitory concentration (IC50) in the test on U-937 of 257 µM.

In the test with U-937, `O=C1Nc2cc(Br)ccc2C1=O` gave an IC50 of 74.8 µM.

The values above are taken from ChEMBL document CHEMBL1144554, “In vitro cytotoxicity evaluation of some substituted isatin derivatives” (Bioorg Med Chem, 2007).
